Reference: ChEMBL document CHEMBL1128364 (J Med Chem, 1995)
Numbered stars: 1 amine (or outer) side, 2 acyl side, 3 side chain; on linkers, the order of the positions; unused ones are H or OH. Bridge positions count the residues as written; N and C are the ends. Square brackets hold non-standard residues; d marks the D form. Peptide text beside a SMILES is read from it. X2 = O=C(CC1(S[*:2])CCCCC1)[*:1]

Tests used:
[1] = target: Vasopressin V2 receptor (Rattus norvegicus, UniProt Q00788); experiment: (§1) Antidiuretic activity at V2 receptor; assay type: tissue-based, Urine; conditions: read-out: pA2 (converted)
Sequence of Vasopressin V2 receptor (Q00788 whole entry): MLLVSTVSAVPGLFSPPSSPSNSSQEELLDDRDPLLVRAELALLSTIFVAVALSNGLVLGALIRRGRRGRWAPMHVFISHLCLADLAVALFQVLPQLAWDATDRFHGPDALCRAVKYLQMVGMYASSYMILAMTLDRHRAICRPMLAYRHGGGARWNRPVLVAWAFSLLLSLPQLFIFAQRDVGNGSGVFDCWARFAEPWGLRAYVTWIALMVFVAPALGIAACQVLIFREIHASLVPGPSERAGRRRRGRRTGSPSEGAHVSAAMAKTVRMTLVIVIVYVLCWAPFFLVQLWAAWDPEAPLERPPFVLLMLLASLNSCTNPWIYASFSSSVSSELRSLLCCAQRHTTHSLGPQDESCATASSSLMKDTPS

[2] = target: Vasopressin V1a receptor (Rattus norvegicus, UniProt P30560); experiment: (§2) Anti-vasopressor activity at V1a receptor; conditions: for Kb: read-out: pA2 (converted)
Sequence of Vasopressin V1a receptor (P30560 whole entry): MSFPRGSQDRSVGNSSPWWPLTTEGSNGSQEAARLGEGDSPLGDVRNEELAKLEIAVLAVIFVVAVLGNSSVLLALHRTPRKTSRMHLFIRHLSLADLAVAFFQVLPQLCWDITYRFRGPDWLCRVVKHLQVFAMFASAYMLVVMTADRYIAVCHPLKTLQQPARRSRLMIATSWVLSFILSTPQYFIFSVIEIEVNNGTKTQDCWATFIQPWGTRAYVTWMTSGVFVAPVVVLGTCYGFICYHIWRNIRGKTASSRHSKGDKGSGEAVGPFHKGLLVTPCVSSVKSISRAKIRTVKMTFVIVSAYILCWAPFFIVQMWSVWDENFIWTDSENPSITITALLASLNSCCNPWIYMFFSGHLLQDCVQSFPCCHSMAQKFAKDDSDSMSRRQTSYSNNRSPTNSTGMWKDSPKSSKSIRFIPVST

[3] = system: Rattus norvegicus; experiment: (§3) In vivo anti-oxytocic activity was determined.; assay type: functional
[4] = target: T1, Oxytocin receptor (Rattus norvegicus, UniProt P70536); experiment: In vitro anti-oxytocic activity with out Mg2+.; conditions: for Kb: read-out: pA2 (converted)
T1 sequence (P70536 whole entry): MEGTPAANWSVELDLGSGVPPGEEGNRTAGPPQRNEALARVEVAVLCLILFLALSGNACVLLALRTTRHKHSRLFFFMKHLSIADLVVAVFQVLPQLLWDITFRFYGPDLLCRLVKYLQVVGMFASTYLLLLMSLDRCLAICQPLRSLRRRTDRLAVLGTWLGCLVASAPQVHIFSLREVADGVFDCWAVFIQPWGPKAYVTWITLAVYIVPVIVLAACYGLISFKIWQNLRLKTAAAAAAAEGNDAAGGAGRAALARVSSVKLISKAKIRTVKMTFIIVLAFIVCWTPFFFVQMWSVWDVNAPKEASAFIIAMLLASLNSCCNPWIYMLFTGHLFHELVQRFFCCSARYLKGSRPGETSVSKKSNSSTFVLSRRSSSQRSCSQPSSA

[5] = target: Vasopressin V1a receptor (Rattus norvegicus) (UniProt P30560); experiment: as §2
Sequence of Vasopressin V1a receptor (Rattus norvegicus) (P30560 whole entry, looked up): as the sequence (P30560 whole entry) above

[6] = target: T1, Oxytocin receptor; experiment: In vitro anti-oxytocic activity with 0.5 mM Mg2+.; conditions: for Kb: read-out: pA2 (converted)
[7] = system: Rattus norvegicus; experiment: as §3; assay type: functional, organism-based; conditions: read-out: pA2 (converted)
[8] = target: Vasopressin V2 receptor (Rattus norvegicus) (UniProt Q00788); experiment: as §1; assay type: tissue-based; conditions: Urine
Sequence of Vasopressin V2 receptor (Rattus norvegicus) (Q00788 whole entry): as the sequence (Q00788 whole entry) above

[9] = system: Rattus norvegicus; experiment: (§4) In vivo activity for the anti-oxytocic activity.; assay type: functional, organism-based; conditions: read-out: pA2 (converted)
[10] = system: Rattus norvegicus; experiment: as §4; assay type: functional
[11] = target: T1, Oxytocin receptor; experiment: In vitro antioxycic activity with out Mg2+.; conditions: read-out: pA2 (converted)
[12] = target: Vasopressin V2 receptor (Rattus norvegicus) (UniProt Q00788); experiment: Antidiuretic activity at V2 receptor.; conditions: Urine

## CC[C@H](C)[C@@H]1NC(=O)[C@@H](Cc2c[nH]c3ccccc23)NC(=O)CC2(CCCCC2)SSC[C@H](C(=O)N2CCC[C@H]2C(=O)N[C@@H](CCCN=C(N)N)C(=O)NCC(N)=O)NC(=O)[C@H](CC(N)=O)NC(=O)[C@H](CCC(N)=O)NC1=O ([dW]IQN[dC]PRG-NH2; linker N-5 via X2)
[1]
  Kb: > 2.51 µM
[2]
  Kb: 0.0295 µM

## CC[C@H](C)[C@@H]1NC(=O)[C@H](Cc2ccc(OC)cc2)NC(=O)CC2(CCCCC2)SSC[C@H](C(=O)N2CCC[C@H]2C(=O)N[C@@H](CCCN)C(=O)O)NC(=O)[C@H](CC(N)=O)NC(=O)[C@H]([C@@H](C)O)NC1=O [listing 1 of 2 here]
[3]
  ED: 9.24 nM/kg

## CC[C@H](C)[C@@H]1NC(=O)[C@H](Cc2ccc(OC)cc2)NC(=O)CC2(CCCCC2)SSC[C@@H](C(=O)N2CCC[C@H]2C(=O)N[C@@H](CCCN)C(=O)O)NC(=O)[C@H](CC(N)=O)NC(=O)[C@H]([C@@H](C)O)NC1=O
[1]
  Kb: 3.16 µM
[2]
  Kb: 0.331 µM
[4]
  Kb: 0.0129 µM
[5]
  ED: 23 nM/kg
[6]
  Kb: 0.00575 µM

## CC[C@H](C)[C@@H]1NC(=O)[C@@H](Cc2c[nH]c3ccccc23)NC(=O)CC2(CCCCC2)SSC[C@@H](C(=O)N2CCC[C@H]2C(=O)N[C@@H](CCCN=C(N)N)C(=O)NCC(N)=O)NC(=O)[C@H](CC(N)=O)NC(=O)[C@H](CCC(N)=O)NC1=O ([dW]IQNCPRG-NH2; linker N-5 via X2)
[1]
  Kb: > 1.26 µM
[2]
  Kb: 0.0275 µM

## CC[C@H](C)[C@@H]1NC(=O)[C@@H](Cc2cc3ccccc3[nH]2)NC(=O)CC2(CCCCC2)SSC[C@@H](C(=O)N2CCC[C@H]2C(=O)N[C@@H](CCCN=C(N)N)C(=O)NCC(N)=O)NC(=O)[C@H](CC(N)=O)NC(=O)[C@H](CCC(N)=O)NC1=O
[5]
  ED: 2 nM/kg

## CC[C@H](C)[C@@H]1NC(=O)[C@H](Cc2ccc(OC)cc2)NC(=O)CC2(CCCCC2)SSC[C@H](C(=O)N2CCC[C@H]2C(=O)N[C@@H](CCCN)C(=O)NCC(N)=O)NC(=O)[C@H](CC(N)=O)NC(=O)[C@H](CCC(N)=O)NC1=O [listing 1 of 2 here]
[1]
  Kb: 1.26 µM
[2]
  Kb: 0.0562 µM
[4]
  Kb: 0.0224 µM
[6]
  Kb: 0.0363 µM
[7]
  Kb: 0.0468 µM

## CC(C)[C@@H]1NC(=O)[C@@H](Cc2ccccc2)NC(=O)[C@@H](Cc2ccccc2)NC(=O)CC2(CCCCC2)SSC[C@@H](C(=O)N2CCC[C@H]2C(=O)N[C@@H](CCCN=C(N)N)C(=O)NCC(N)=O)NC(=O)[C@@H](CC(N)=O)NC1=O
[8]
  ED: 0.67 nM/kg
[5]
  ED: 0.58 nM/kg

## CC[C@H](C)[C@@H]1NC(=O)[C@H](Cc2ccc(OC)cc2)NC(=O)CC2(CCCCC2)SSC[C@H](C(=O)N2CCC[C@H]2C(=O)N[C@@H](CCCN)C(=O)NCC(N)=O)NC(=O)[C@H](CC(N)=O)NC(=O)[C@H](CCC(N)=O)NC1=O [listing 2 of 2 here]
[3]
  ED: 3.11 nM/kg

## CC[C@H](C)[C@@H]1NC(=O)[C@@H](Cc2c[nH]c3ccccc23)NC(=O)CC2(CCCCC2)SSC[C@@H](C(=O)N2CCC[C@H]2C(=O)N[C@@H](CCCN)C(=O)NCC(N)=O)NC(=O)[C@H](CC(N)=O)NC(=O)[C@H]([C@@H](C)O)NC1=O [listing 1 of 2 here]
[3]
  ED: 3.08 nM/kg

## CCOc1ccc(C[C@@H]2NC(=O)CC3(CCCCC3)SSC[C@@H](C(=O)N3CCC[C@H]3C(=O)N[C@@H](CCCN=C(N)N)C(=O)NCC(N)=O)NC(=O)[C@H](CC(N)=O)NC(=O)[C@H](C(C)C)NC(=O)[C@H](Cc3ccccc3)NC2=O)cc1
[9]
  Kb: 0.182 µM
[2]
  Kb: 0.00692 µM
[8]
  ED: 1.9 nM/kg
[5]
  ED: 0.14 nM/kg
[10]
  ED: 13 nM/kg

## CCOc1ccc(C[C@H]2NC(=O)CC3(CCCCC3)SSC[C@H](C(=O)N3CCC[C@H]3C(=O)N[C@@H](CCCN=C(N)N)C(=O)NCC(N)=O)NC(=O)[C@H](CC(N)=O)NC(=O)[C@H](C(C)C)NC(=O)[C@H](Cc3ccccc3)NC2=O)cc1 [listing 1 of 2 here]
[10]
  ED: 4.8 nM/kg

## CC[C@H](C)[C@@H]1NC(=O)[C@H](Cc2ccc(OC)cc2)NC(=O)CC2(CCCCC2)SSC[C@@H](C(=O)N2CCC[C@H]2C(=O)N[C@@H](CCCN)C(=O)N[C@@H](Cc2ccc(O)cc2)C(N)=O)NC(=O)[C@H](CC(N)=O)NC(=O)[C@H]([C@@H](C)O)NC1=O
[2]
  Kb: 0.0955 µM
[8]
  Antidiuretic activity: 0.015 U mg-1
[5]
  ED: 6.6 nM/kg
[6]
  Kb: 0.00525 µM
[11]
  Kb: 0.0234 µM

## CC[C@H](C)[C@@H]1NC(=O)[C@H](Cc2ccc(OC)cc2)NC(=O)CC2(CCCCC2)SSC[C@H](C(=O)N2CCC[C@H]2C(=O)N[C@@H](CCCN)C(=O)N[C@@H](Cc2ccc(O)cc2)C(N)=O)NC(=O)[C@H](CC(N)=O)NC(=O)[C@H]([C@@H](C)O)NC1=O [listing 1 of 2 here]
[1]
  Kb: 3.16 µM
[2]
  Kb: 0.148 µM
[6]
  Kb: 0.0389 µM
[11]
  Kb: 0.011 µM
[7]
  Kb: 0.0832 µM

## CC(C)[C@@H]1NC(=O)[C@H](Cc2ccccc2)NC(=O)[C@@H](Cc2ccccc2)NC(=O)CC2(CCCCC2)SSC[C@@H](C(=O)N2CCC[C@H]2C(=O)N[C@@H](CCCN=C(N)N)C(=O)NCC(N)=O)NC(=O)[C@H](CC(N)=O)NC1=O
[1]
  Kb: 0.00851 µM
[2]
  Kb: 0.00871 µM

## CC[C@H](C)[C@@H]1NC(=O)[C@H](Cc2ccc(OC)cc2)NC(=O)CC2(CCCCC2)SSC[C@@H](C(=O)N2CCC[C@H]2C(=O)N[C@@H](CCCN)C(=O)NCC(N)=O)NC(=O)[C@H](CC(N)=O)NC(=O)[C@H](CCC(N)=O)NC1=O
[2]
  Kb: 0.011 µM
[8]
  Antidiuretic activity: 0.01 U mg-1
[5]
  ED: 0.8 nM/kg
[6]
  Kb: 0.0132 µM
[11]
  Kb: 0.00302 µM

## CC[C@H](C)[C@@H]1NC(=O)[C@H](Cc2ccc(OC)cc2)NC(=O)CC2(CCCCC2)SSC[C@H](C(=O)N2CCC[C@H]2C(=O)N[C@@H](CCCN)C(=O)O)NC(=O)[C@H](CC(N)=O)NC(=O)[C@H]([C@@H](C)O)NC1=O [listing 2 of 2 here]
[1]
  Kb: 3.98 µM
[2]
  Kb: 0.275 µM
[4]
  Kb: 0.0186 µM
[6]
  Kb: 0.0251 µM
[7]
  Kb: 0.138 µM

## CCOc1ccc(C[C@H]2NC(=O)CC3(CCCCC3)SSC[C@H](C(=O)N3CCC[C@H]3C(=O)N[C@@H](CCCN=C(N)N)C(=O)NCC(N)=O)NC(=O)[C@H](CC(N)=O)NC(=O)[C@H](C(C)C)NC(=O)[C@H](Cc3ccccc3)NC2=O)cc1 [listing 2 of 2 here]
[9]
  Kb: 0.0692 µM
[2]
  Kb: 0.00871 µM

## CC[C@H](C)[C@@H]1NC(=O)[C@H](Cc2ccc(O)cc2)N(C)C(=O)CC2(CCCCC2)SSC[C@H](C(=O)N2CCC[C@H]2C(=O)N[C@@H](CCCN)C(=O)NCC(N)=O)NC(=O)[C@H](CC(N)=O)NC(=O)[C@H](CCC(N)=O)NC1=O
[5]
  ED: 3.73 nM/kg

## COc1ccc(C[C@@H]2NC(=O)CC3(CCCCC3)SSC[C@H](C(=O)N3CCC[C@H]3C(=O)N[C@@H](CCCN=C(N)N)C(=O)NCC(N)=O)NC(=O)[C@H](CC(N)=O)NC(=O)[C@H](CCC(N)=O)NC(=O)[C@H](Cc3ccccc3)NC2=O)cc1
[10]
  ED: 17 nM/kg

## CC[C@H](C)[C@@H]1NC(=O)[C@@H](Cc2c[nH]c3ccccc23)NC(=O)CC2(CCCCC2)SSC[C@@H](C(=O)N2CCC[C@H]2C(=O)N[C@@H](CCCN)C(=O)NCC(N)=O)NC(=O)[C@H](CC(N)=O)NC(=O)[C@H]([C@@H](C)O)NC1=O [listing 2 of 2 here]
[2]
  pA2: 5.43
[4]
  pA2: 8.02
[6]
  pA2: 7.64
[7]
  Kb: 0.0457 µM

## NC(=O)CC[C@@H]1NC(=O)[C@H](Cc2ccccc2)NC(=O)[C@H](Cc2ccc(O)cc2)NC(=O)[C@H](N)CSSC[C@H](C(=O)N2CCC[C@H]2C(=O)N[C@@H](CCCN=C(N)N)C(=O)NCC(N)=O)NC(=O)[C@H](CC(N)=O)NC1=O
[12]
  Antidiuretic activity: 0.82 U mg-1

## CCOc1ccc(C[C@@H]2NC(=O)CC3(CCCCC3)SSC[C@H](C(=O)N3CCC[C@H]3C(=O)N[C@@H](CCCN=C(N)N)C(=O)NCC(N)=O)NC(=O)[C@H](CC(N)=O)NC(=O)[C@H](C(C)C)NC(=O)[C@H](Cc3ccccc3)NC2=O)cc1
[2]
  Kb: 0.0646 µM

## CC(C)[C@@H]1NC(=O)[C@H](Cc2ccccc2)NC(=O)[C@@H](Cc2ccccc2)NC(=O)CC2(CCCCC2)SSC[C@H](C(=O)N2CCC[C@H]2C(=O)N[C@@H](CCCN=C(N)N)C(=O)NCC(N)=O)NC(=O)[C@H](CC(N)=O)NC1=O
[1]
  Kb: 0.0562 µM
[2]
  Kb: 0.0275 µM
[8]
  ED: 3.9 nM/kg
[5]
  ED: 1.9 nM/kg

## CCOc1ccc(C[C@H]2NC(=O)CC3(CCCCC3)SSC[C@@H](C(=O)N3CCC[C@H]3C(=O)N[C@@H](CCCN=C(N)N)C(=O)NCC(N)=O)NC(=O)[C@H](CC(N)=O)NC(=O)[C@H](C(C)C)NC(=O)[C@H](Cc3ccccc3)NC2=O)cc1
[2]
  Kb: 0.00603 µM
[8]
  ED: 1.1 nM/kg
[5]
  ED: 0.45 nM/kg

## CC[C@H](C)[C@@H]1NC(=O)[C@H](Cc2cc3ccccc3[nH]2)NC(=O)CC2(CCCCC2)SSC[C@H](C(=O)N2CCC[C@H]2C(=O)N[C@@H](CCCN=C(N)N)C(=O)NCC(N)=O)NC(=O)[C@H](CC(N)=O)NC(=O)[C@H](CCC(N)=O)NC1=O
[5]
  ED: 2 nM/kg

## CC[C@H](C)[C@@H]1NC(=O)[C@H](Cc2ccc(OC)cc2)NC(=O)CC2(CCCCC2)SSC[C@H](C(=O)N2CCC[C@H]2C(=O)N[C@@H](CCCN)C(=O)N[C@@H](Cc2ccc(O)cc2)C(N)=O)NC(=O)[C@H](CC(N)=O)NC(=O)[C@H]([C@@H](C)O)NC1=O [listing 2 of 2 here]
[3]
  ED: 5.63 nM/kg
